Measured values published in patent US8900551B2, “Peptide which passes through blood-brain barrier and targets apoptosis of neurodegenerative brain disease site and uses thereof” (Kyungpook National University Industry-Academic Cooperation …, priority 2009, dated 2014).
Where no end group is shown, it is not given here.

Experiments:
[1] = test system: Parkinson's disease-affected mouse treated with MPTP; experiment: Monitoring the therapeutic effect of amantadine in MPTP-induced Parkinson's disease mice; assay type: in vivo
Procedure: (§1) Parkinson's disease was induced by specifically destroying a dopaminergic neuron existing in substantia nigra of a brain by a drug. For this, to each of C57BL male mice (koatech) (body weight: 21 to 23 g), MPTP (1-methyl-4-phenyl-1,2,3,6-tetrahydro pyridine hydrochloride) (Sigma) was administered with a single dose of 15 mg/kg. MPTP administration was carried out with an interval of 2 hours, four times through intraperitoneal injection, and each mouse was administered with MPTP in a total amount of 60 mg/kg.
(§2) On day 7, 14, and 21 from the administration of MPTP (day 0), the inventive peptide labeled with Cy7.5 was injected. The peptide was intravenously injected into a tail vein to a final concentration of 50 μM, under isoflurane anesthesia, and was circulated for 2 hours. Then, an in vivo near infrared fluorescence image was imaged. The mouse on which the experiment had been completed was immediately subjected to anesthesia and euthanasia. Then, a brain tissue sample was collected. From the dead mouse, blood was immediately removed by saline solution flushing through heart, and primarily fixed by re-flushing of 4% paraformaldehyde solution. The primarily fixed brain was collected from the mouse, and then postfixed by being placed for 1 day in 30% sucrose/phosphate buffer solution, and placed for 1 day in 4% paraformaldehyde phosphate buffer solution. The fixed brain tissues were rapidly frozen by dry ice, and formed into a block for frozen fractions. At some desired time, the stored brain block was prepared as frozen fractions, and used for various staining methods.
Also, in order to monitor the therapeutic effect of a drug, after 30 minutes from the administration of MPTP, amantadine used as a Parkinson's disease therapeutic agent was intraperitoneally administered into each mouse in a dose of 25 mg/kg a total of seven times with a one day interval. On day 7 from the administration of amantadine, the inventive peptide labeled with Cy7.5 was injected, and imaging and tissue staining were carried out in the same manner as described above. Apoptosis was analyzed in the same manner as described in Example <1-1>.

[2] = test system: apoptotic cells within Alzheimer's disease-affected brain tissues; experiment: In vivo near infrared imaging of Alzheimer's disease model mice with Cy7.5-labeled peptide; design: species or system mouse; conditions: intravenous
Source text: (§3) As an Alzheimer's disease model, a transgenic mouse model over-expressing Amyloid precursor protein (APP) gene and Presenilin 1 (PS1) gene was used. The model animal has a characteristic that apoptosis together with extracellular accumulation of beta amyloid protein (one of the characteristics of Alzheimer's disease) gradually increases according to an increase of age. On mice, from a 5 month old mouse (early stage of alzheimer's disease) to a 13 month old mouse (severe stage), this experiment was performed according to the progression of disease. The apoptosis was confirmed by TUNEL (in vitro terminal deoxynucleotidyl transferase-mediated dUTP nick-end labeling) assay according to the manufacturer (Roche)'s instructions. In this method, biotin-dUTP is labeled at the end of a cleaved DNA fragment specifically occurring in apoptosis by using terminal deoxynucleotidyl transferase enzyme, and then fluorescence staining is performed by streptavidin-rhodamine (red fluorescent dye).
The Alzheimer's disease-affected mouse (5, 7, 9, and […]) models were intravenously injected with the inventive peptide (ApoPep-1) labeled with Cy7.5 near infrared fluorescence, under isoflurane anesthesia, to a final concentration of 50 μM. After 2 hours from the injection, a head region was imaged by near infrared imaging, and each brain was isolated and imaged by near infrared imaging. An in vivo near infrared fluorescence image was imaged by an Optix exPlore machine (ART). Also, by using the machine's own software, each image was standardized.
The peptide used in the present invention was synthesized by a standard Fmoc method, and separated by HPLC machine. The synthesis of the peptide was carried out by special companies (Peptron and Anygen). The peptide was synthesized in such a manner that N-terminal was combined with fluorescein isothiacyanate (FITC). Otherwise, after the synthesis of the peptide, N-terminal was combined with Cy7.5 near infrared fluorescent dye.

[3] = test system: apoptotic cells within Parkinson's disease-affected brain tissues; experiment: In vivo near infrared imaging of MPTP-induced Parkinson's disease mice with Cy7.5-labeled peptide; design: species or system mouse; conditions: for near infrared fluorescence at the brain region: Cy7.5-labeled, intravenous, 2 hours
Procedure: as §1, §2

[4] = test system: apoptotic cells within Alzheimer's disease-affected brain tissues; experiment: Immunofluorescence staining analysis of Alzheimer's disease-affected brain tissues injected with FITC-labeled peptide; assay type: in vivo; conditions: frozen brain sections, Alzheimer's disease-affected mouse 13 months old
Procedure: For histological examination, the brain tissues isolated from the mouse (13 months old) injected with the inventive peptide labeled with FITC fluorescence (green), which had been subjected to in vivo imaging in Example <1-1>, were postfixed by 4% paraformaldehyde liquid, and immersed in Sucrose/phosphate buffer for 24 hours. Then, they were prepared as frozen sections with a thickness of 30 μm by cryostat. Immunofluorescence staining on an antibody was carried out by using a secondary antibody labeled with alexa 568 (red fluorescent dye). Each tissue slide was observed by a fluorescence microscope (Zeiss).

[5] = test system: apoptotic cells within Parkinson's disease-affected brain tissues; experiment: Immunofluorescence / TUNEL staining of Parkinson's disease-affected brain tissues injected with FITC-labeled peptide; assay type: in vivo, mouse
Source text: as §3, with “The apoptosis was confirmed by TUNEL (in vitro terminal deoxynucleotidyl transferase-mediated dUTP nick-end labeling) assay according to the manufacturer (Roche)'s instructions.” left out
[…] Then, an in vivo near infrared fluorescence image was imaged. […]
Also, in order to monitor the therapeutic effect of a drug, after 30 minutes from the administration of MPTP, amantadine used as a Parkinson's disease therapeutic agent was intraperitoneally administered into each mouse in a dose of 25 mg/kg a total of seven times with a one day interval. […] Apoptosis was analyzed in the same manner as described in Example <1-1>.

[6] = amantadine following MPTP vs MPTP alone, brain tissues
[7] = Parkinson's disease-affected mouse (MPTP), 50 μM final

| Molecule | near infrared fluorescence of Cy7.5-labeled inventive peptide at brain region ([1]; amantadine 25 mg/kg intraperitoneal, seven times at one day interval following MPTP, vs mouse administered with MPTP) | number of TUNEL-stained apoptotic cells ([1]; amantadine following MPTP vs MPTP alone) | TUNEL staining (apoptosis biomarker) [1, 6] | antibody staining of tyrosine hydroxylase (TH) (dopaminergic neuron-specific marker) [1, 6] | number of TH-stained dopaminergic neurons ([1]; amantadine following MPTP vs MPTP alone, p<0.01) | near infrared fluorescence at brain region ([2]; mouse (8 months old), Cy7.5-labeled, 2 hours after injection) | near infrared fluorescence at the brain region [3, 7] | near infrared fluorescence intensity level at head region according to disease progression ([2]; APP/PS1 Alzheimer's disease-affected mice 5, 7, 9, 13 months old, Cy7.5-labeled, 50 μM final, 2 hours after injection) | near infrared fluorescence at the brain region, Alzheimer's disease-affected mouse versus normal mouse ([2]; Alzheimer's disease-affected mouse (7 and 9 months old) vs normal (wild type) mouse (8 months old), 2 hours) | co-staining of peptide (green) with antibody to Caspase-3 (apoptosis biomarker) [4] | distribution of peptide relative to brain blood vessel (α-SMA antibody staining); passing through blood-brain barrier [4] | near infrared fluorescence at a brain region with the lapse of time ([3]; after 1 week, 2 weeks and 3 weeks from administration of MPTP) | near infrared fluorescence at the brain region ([3]; normal (wild type) mouse) | co-location of peptide (green) with TUNEL staining (apoptosis biomarker) ([5]; brain tissues of MPTP mice and mice administered with amantadine following MPTP (FIG. 7c)) | co-location of peptide (green) with TUNEL staining (apoptosis biomarker) ([5]; brain tissues of Parkinson's disease-affected mouse treated with MPTP, FITC-labeled peptide) |
| --- | --- | --- | --- | --- | --- | --- | --- | --- | --- | --- | --- | --- | --- | --- | --- |
| NC12CC3CC(CC(C3)C1)C2 [amantadine] | lower near infrared fluorescence than the mouse administered with MPTP | reduction of apoptosis in neurons | decrease of TUNEL staining | increase of antibody staining of tyrosine hydroxylase | statistically significantly increased |  |  |  |  |  |  |  |  |  |  |
| control peptide: control peptide (amino acid sequence, NSSSVDK) [reference compound] |  |  |  |  |  | hardly observed | hardly observed |  |  |  |  |  |  |  |  |
| inventive peptide: peptide targeting apoptotic cells, amino acid sequence CQRPPR (SEQ ID NO: 1), named ApoPep-1; N-terminal labeled with FITC or Cy7.5 (also: N-terminal FITC or Cy7.5 label) |  |  |  |  |  |  | strong near infrared fluorescence was observed | near infrared fluorescence intensity level increased | much stronger near infrared fluorescence at the brain region than the normal mouse | concurrently stained at the same cell | distributed within brain parenchyma outside of a brain blood vessel | became stronger | hardly observed | located at the same cell | concurrently located at the same cell |
